{"source": "patent US20190083457A1", "about": "“MITOCHONDRIAL ALDEHYDE DEHYDROGENASE-2 MODULATORS FOR PROTECTING, EXPANDING AND INCREASING THE POTENCY OF HEMATOPOIETIC STEM CELLS” (The Borad of Trustees of the Leland Stanford Junior …, priority 2017, published 2019)", "key": {"[1]": {"experiment": "Tolerability of chronic Alda-1 administration in vivo", "settings": "10 mg/kg.day continuous subcutaneous infusion, 3 months", "procedure": "(§1) Mice (wild-type C57BL/6N were administered with Alda-1 (10 mg/kg.day) or vehicle control (50% DMSO/50% PEG-400) by continuous infusion via subcutaneous osmatic pumps for 3 months.\n(§2) Vehicle control and Alda-1 treated mice were then analyzed for HSC functionality. […] With reference to FIG. 1A and FIG. 1B, error bars show standard deviation, significance computed with Student's t-test. *=p≤0.05."}, "[2]": {"test_system": "HSCs", "experiment": "Competitive repopulation with HSCs from Alda-1 treated and untreated donors", "assay_type": "in vivo, mice", "settings": "FIG. 2", "from_the_text": "To measure the effects of ALDH2 activation on HSC potency, recipient mice were transplanted with purified HSCs from two donors, one of which had received Alda-1 prior to collection of HSCs for transplant, and another of the same strain which had not received Alda-1 prior to collection for transplant. The two donors were genetically the same except for a difference in the CD45 gene, which allows the blood cells from each to be distinguished from each other and the recipient.\nThe Alda-1 treated donor had received Alda-1 subcutaneously for 2 months prior to HSC collection. The cells from the treated and untreated donors were mixed together prior to transplant at fixed ratios of 1:3 (25%), 1:1 (50%), or 3:1 (75%). A total of 3000 HSCs were given intravenously to immunodeficient (γc^-/- Kit^W41/W41) mice after low dose irradiation. The polymorphonuclear neutrophils (PMN, aka granulocytes) in each recipient mouse were tested at 6 weeks after transplant to determine what proportion of the PMN were derived from each HSC donor.\nWith reference to FIG. 2, the X-axis represents percentage of total cells infused which were from Alda-1 treated donor and the Y-axis represents the actual percentage of PMN observed after HSCT to be derived from Alda-1 treated donor. The linear line represents the predicted ratio if there were no difference in the repopulating ability of the HSC cells."}, "[3]": {"test_system": "HSC", "experiment": "HSC expansion in mice given Alda-1 by continuous subcutaneous infusion", "assay_type": "in vivo, mice (wild-type C57BL/6N)", "procedure": "as §1, §2"}}, "note": "“Also recorded” adds a separate entry of the source.", "data": [{"smiles": "O=C(NCc1ccc2c(c1)OCO2)c1c(Cl)cccc1Cl", "note": "[Alda-1]", "values": [{"measurement": "tolerability of chronic administration", "setting": "[1]", "result": "well tolerated"}, {"measurement": "origin of PMN in recipient vs ratio of transplanted cells", "setting": "[2]; 6 weeks after transplant, treated:untreated donor cells 1:3, 1:1 or 3:1", "result": "more likely to be derived from the Alda-1 treated donor than predicted"}, {"measurement": "potency / repopulating ability of HSC in recipient", "setting": "[2]; donor given Alda-1 subcutaneously for 2 months, 3000 HSCs i.v. to irradiated immunodeficient mice", "result": "increased repopulating ability; also recorded: increased the potency of HSC in repopulating recipient"}, {"measurement": "HSC expansion (in words)", "setting": "[3]; Alda-1 10 mg/kg.day, subcutaneous osmotic pumps, 3 months, vs vehicle control", "result": "significant HSC expansion"}, {"measurement": "increase in (LT)-HSCs", "setting": "[3]; Alda-1 10 mg/kg.day, subcutaneous osmotic pumps, 3 months, vs vehicle control, FIG. 1A", "result": 4, "unit": "fold"}, {"measurement": "increase in (ST)-HSCs", "setting": "[3]; Alda-1 10 mg/kg.day, subcutaneous osmotic pumps, 3 months, vs vehicle control, FIG. 1B", "result": 2, "unit": "fold"}, {"measurement": "long-term mouse HSC (in words)", "setting": "[3]; FIG. 1A legend", "result": "increases long-term mouse HSC"}, {"measurement": "short-term HSC (in words)", "setting": "[3]; FIG. 1B legend", "result": "increases short-term HSC"}]}]}
